In PMC9387934, “Randomized single oral dose phase 1 study of safety, tolerability, and pharmacokinetics of Iminosugar UV-4 Hydrochloride (UV-4B) in healthy subjects” (PLoS Neglected Tropical Diseases, 2022):
Counter-ions that a name gives are not always drawn.

What was measured:
[1] = system: all ten CYPs; parameters: method as in Investigator’s Brochure (IB); details: all ten CYPs at the tested conditions; ref Investigator’s Brochure (IB); cited from earlier work
[2] = Cardiovascular assessment in dogs, single dose GLP study (UV4-COV-0023); format: in vivo; details: dog, 50 mg/kg
Text: dependent from lowest to highest partitioning in mouse, rat, human, and dog. Mean blood cell partitioning ranged from 29.7% to 37.2% in mouse, 32.1% to 35.1% in rat, 32.7% to 53.3% in human, and 58.6% to 63.8% in dog. […]
hepatocytes. Metabolism was minimal and appears to involve O-demethylation, oxidation, and direct glucuronidation of UV-4. Three metabolites were tentatively identified in mouse and dog hepatocytes, whereas only the O-demethylation and oxidation metabolites, but not the direct glucuronidation product of UV-4, were found in human hepatocytes.
Following a single oral dose, UV-4 appears to be rapidly excreted with t1/2 values ranging from 2 hours in ferrets, 3 to 5 hours in mice and rats, and 4 to 9 hours in dogs. In rats, urinary excretion of UV-4 after an oral dose of UV-4B was rapid, with the highest percent dose excreted in the initial 0 to 4 hour period after dosing. […]
Based on the dog NOAEL [10 mg/kg/dose TID] and the appropriate conversion recommended in the FDA guidance (e.g., 60 kg body weight for humans), the HED for the NOAEL of UV-4B in dog is 333 mg TID. Considering that the lowest dose tested in dogs (2 mg/kg TID or expressed as HED, 67 mg TID) was associated with decreases in PLT count (mild), increases in aPTT (very mild), increases in AST (up to 3x BL), and histopathological changes, a 100-fold safety factor was applied to the NOAEL. […]

[3] = parameters: method as in Investigator’s Brochure (IB); details: beagle dogs, single dose of 400 mg/kg; ref Investigator’s Brochure (IB); cited from earlier work
[4] = parameters: method as in Investigator’s Brochure (IB); details: 50 mg/kg/day for 12 days; ref Investigator’s Brochure (IB); cited from earlier work

Row | Structure (SMILES) | Potential for metabolism-dependent inhibition [1] | Multiple of predicted minimum clinically efficacious dose at which arterial pulse pressure decreased [2] | Neurologic finding [3] | Finding in rat offspring [4]
1 | COCCCCCCCCCN1C[C@H](O)[C@@H](O)[C@H](O)[C@H]1CO [UV-4, N-(9’-methoxynonyl)-1-deoxynojirimycin] | no significant potential |  |  | 
2 | COCCCCCCCCCN1C[C@H](O)[C@@H](O)[C@H](O)[C@H]1CO [UV-4B, N-(9’-methoxynonyl)-1-deoxynojirimycin hydrochloride] |  | approximately 30 fold | tremors | increase in skeletal malformations
